In brackets after ≈: the same amount, converted by molar mass. Like-named read-outs stand apart in the source and are kept apart here. Square brackets hold non-standard residues; d marks the D form. Ends that are not written are not given here. Peptide text beside a SMILES is read from it. * marks the point of attachment. Palmitoyl = CCCCCCCCCCCCCCCC(=O)*
Legend:
[1] = system: Cryptococcus neoformans ATCC 208821; test: CO-ADD MIC, antifungal assay (CLSI); format: cell-based; conditions: Yeast Nitrogen Base broth, 24 h 35 °C, by CO-ADD
Method: (§1) Fungi strains were cultured for 3 days on Yeast Extract-Peptone Dextrose (YPD) agar at 30 °C. A yeast suspension of 1 × 10^6 to 5 × 10^6 cells/mL (as determined by OD530) was prepared from five colonies. These stock suspensions were diluted with Yeast Nitrogen Base (YNB) broth to a final concentration of 2.5 × 10^3 CFU/mL. […] Plates were covered and incubated at 35 °C for 24 h without shaking.

[2] = system: Candida albicans ATCC 90028; test: CO-ADD MIC, antifungal assay (CLSI); format: cell-based; conditions: Yeast Nitrogen Base broth, 24 h 35 °C, by CO-ADD
Method: as §1

P. aeruginosa ATCC 10145 = conditions: CFU assay, 10 mM NaP, pH 5.5, 0.25% glucose
[3] = system: Staphylococcus aureus ATCC 43300; conditions: MRSA; CLSI, Mueller–Hinton broth, 5 × 10^5 CFU/mL, 18 h 37 °C, by CO-ADD
[4] = system: Acinetobacter baumannii ATCC 19606; test: CO-ADD MIC, broth microdilution (CLSI); format: cell-based; conditions: Mueller–Hinton broth, 5 × 10^5 CFU/mL, 18 h 37 °C, by CO-ADD
From the text: (§2) They were defined as the lowest peptide
(§3) Further details of the screening

[5] = system: Pseudomonas aeruginosa ATCC 27853; test: CO-ADD MIC, broth microdilution (CLSI); format: cell-based; conditions: Mueller–Hinton broth, 5 × 10^5 CFU/mL, 18 h 37 °C, by CO-ADD
From the text: as §2, §3

E. coli ATCC 25922 = test: CO-ADD MIC, broth microdilution (CLSI); format: cell-based, Escherichia coli; conditions: Mueller–Hinton broth, 5 × 10^5 CFU/mL, 18 h 37 °C, by CO-ADD
From the text: as §2, §3

[6] = system: Klebsiella pneumonia ATCC 700603; conditions: MDR strain; CLSI, Mueller–Hinton broth, 5 × 10^5 CFU/mL, 18 h 37 °C, by CO-ADD
S. aureus ATCC 6538 = conditions: CFU assay
[7] = 10 mM NaP, pH 5.5, 0.25% glucose

Row | Compound | Minimal inhibitory concentration (MIC) [1] [µg/mL] | Minimal inhibitory concentration (MIC) [2] [µg/mL] | LD90 (P. aeruginosa ATCC 10145) [µg/mL] | LD100 (P. aeruginosa ATCC 10145) [µg/mL] | Minimal inhibitory concentration (MIC) [3] [µg/mL] | Minimal inhibitory concentration (MIC) [4] [µg/mL] | Minimal inhibitory concentration (MIC) [5] [µg/mL] | Minimal inhibitory concentration (MIC) (E. coli ATCC 25922) [µg/mL] | Minimal inhibitory concentration (MIC) [6] [µg/mL] | LD90 (S. aureus ATCC 6538; [7]) [µg/mL] | LD99 (concentration of peptide which kills 99.0% of inoculum) (S. aureus ATCC 6538; [7]) [µg/mL] | LD100 (S. aureus ATCC 6538; [7]) [µg/mL] | LD90 (S. aureus ATCC 6538; value in molar units) [µM] | LD90 (S. aureus ATCC 6538; 10 mM NaP, pH 7.3, 1% TSB) [µg/mL] | LD99 (concentration of peptide which kills 99.0% of inoculum) (S. aureus ATCC 6538; 10 mM NaP, pH 7.3, 1% TSB) [µg/mL] | LD90 (S. aureus ATCC 6538; 10 mM NaP, pH 7.0, 0.25% glucose) [µg/mL]
1 | CCCCCCCCCCCCCCCC(=O)NCC(=O)N[C@H](CCCNC(=N)N)C(=O)N[C@H](CCCNC(=N)N)C(=O)NCC(=O)NCC(=O)N[C@H](CCCNC(=N)N)C(=O)NCC(=O)NCC(=O)N[C@H](CCCNC(=N)N)C(=O)NCC(=O)N[C@H](CCCNC(=N)N)C(=O)NCC(=O)N[C@H](CCCNC(=N)N)C(=O)O [(D)-Pal-GR13] (Palmitoyl-G[dR][dR]GG[dR]GG[dR]G[dR]G[dR]-OH; C-terminus assumed) | 2 (≈ 1.26 µM) | 8 (≈ 5.02 µM) | 0.075 | 0.3 | 2 (≈ 1.26 µM) | 8 (≈ 5.02 µM) | 16 (≈ 10 µM) | 8 (≈ 5.02 µM) | ≥32 | 0.075 | 0.59 | 75 |  |  |  | 
2 | CCCCCCCCCCCCCCCC(=O)NCC(=O)N[C@@H](CCCNC(=N)N)C(=O)NCC(=O)N[C@@H](CCCNC(=N)N)C(=O)O [Pal-GR4] (Palmitoyl-GRGR-OH) | 8 (≈ 11.7 µM) | 8 (≈ 11.7 µM) |  |  | 8 (≈ 11.7 µM) | >32 | >32 | >32 | >32 | 2.35 | 4.7 |  | 3.4 |  |  | 
3 | CCCCCCCCCCCCCCCC(=O)NCC(=O)N[C@@H](CCCNC(=N)N)C(=O)N[C@@H](CCCNC(=N)N)C(=O)NCC(=O)NCC(=O)N[C@@H](CCCNC(=N)N)C(=O)O [Pal-GR6] (Palmitoyl-GRRGGR-OH) | 16 (≈ 17.9 µM) | >32 |  |  | 16 (≈ 17.9 µM) | >32 | >32 | >32 | >32 | 2.35 | 4.7 |  |  |  |  | 
4 | CCCCCCCCCCCCCCCC(=O)NCC(=O)N[C@@H](CCCNC(=N)N)C(=O)N[C@@H](CCCNC(=N)N)C(=O)NCC(=O)NCC(=O)N[C@@H](CCCNC(=N)N)C(=O)NCC(=O)NCC(=O)N[C@@H](CCCNC(=N)N)C(=O)O [Pal-GR9] (Palmitoyl-GRRGGRGGR-OH) | >32 | >32 |  |  | 8 (≈ 6.86 µM) | >32 | >32 | >32 | >32 | 1.18 | 4.7 |  |  |  |  | 
5 | CCCCCCCCCCCCCCCC(=O)NCC(=O)N[C@@H](CCCNC(=N)N)C(=O)N[C@@H](CCCNC(=N)N)C(=O)NCC(=O)NCC(=O)N[C@@H](CCCNC(=N)N)C(=O)NCC(=O)NCC(=O)N[C@@H](CCCNC(=N)N)C(=O)NCC(=O)N[C@@H](CCCNC(=N)N)C(=O)O [Pal-GR11] (Palmitoyl-GRRGGRGGRGR-OH) | 4 (≈ 2.9 µM) | 4 (≈ 2.9 µM) |  |  | 4 (≈ 2.9 µM) | 8 (≈ 5.8 µM) | 16 (≈ 11.6 µM) | 8 (≈ 5.8 µM) | >32 |  |  |  |  | 0.3 | 1.18 | 
6 | CCCCCCCCCCCCCCCC(=O)N[C@@H](Cc1c[nH]cn1)C(=O)NCC(=O)N[C@@H](CO)C(=O)N[C@@H](CCCNC(=N)N)C(=O)N[C@@H](CO)C(=O)NCC(=O)N[C@@H](CCC(N)=O)C(=O)N[C@@H](CO)C(=O)N[C@@H](CO)C(=O)N[C@@H](CCCNC(=N)N)C(=O)NCC(=O)N[C@@H](CCC(=O)O)C(=O)N[C@@H](CCCNC(=N)N)C(=O)N[C@@H](Cc1c[nH]cn1)C(=O)NCC(=O)N[C@@H](CO)C(=O)N[C@@H](CO)C(=O)N[C@@H](CO)C(=O)NCC(=O)N[C@@H](CO)C(=O)N[C@@H](CO)C(=O)N[C@@H](CO)C(=O)N[C@@H](Cc1c[nH]cn1)C(=O)O [Pal-HR 1-11] (Palmitoyl-HGSRSGQSSRGERHGSSSGSSSH-OH) | >32 | >32 |  |  | 32 (≈ 12.6 µM) | >32 | >32 | >32 | >32 | 2.35 |  |  |  |  |  | 
7 | CCCCCCCCCCCCCCCC(=O)NCC(=O)N[C@@H](CCCNC(=N)N)C(=O)N[C@@H](CCCNC(=N)N)C(=O)NCC(=O)N[C@@H](CO)C(=O)NCC(=O)N[C@@H](CC(C)C)C(=O)NCC(=O)N[C@@H](CCCNC(=N)N)C(=O)N[C@@H](CO)C(=O)N[C@@H](CO)C(=O)N[C@@H](CO)C(=O)N[C@@H](CCCNC(=N)N)C(=O)O [Pal-HR 1-18-3H3R-GR13] (Palmitoyl-GRRGSGLGRSSSR-OH) | 16 (≈ 10.2 µM) | >32 |  |  | 16 (≈ 10.2 µM) | 16 (≈ 10.2 µM) | >32 | >32 | >32 | 2.35 |  |  |  |  |  | 
8 | CCCCCCCCCCCCCCCC(=O)N[C@@H](CCCNC(=N)N)C(=O)NCC(=O)N[C@@H](CO)C(=O)N[C@@H](CCCNC(=N)N)C(=O)N[C@@H](CO)C(=O)NCC(=O)N[C@@H](CCC(N)=O)C(=O)N[C@@H](CO)C(=O)N[C@@H](CO)C(=O)N[C@@H](CCCNC(=N)N)C(=O)NCC(=O)N[C@@H](CCC(=O)O)C(=O)N[C@@H](CCCNC(=N)N)C(=O)N[C@@H](CCCNC(=N)N)C(=O)NCC(=O)N[C@@H](CO)C(=O)N[C@@H](CO)C(=O)N[C@@H](CO)C(=O)NCC(=O)N[C@@H](CO)C(=O)N[C@@H](CO)C(=O)N[C@@H](CO)C(=O)N[C@@H](CCCNC(=N)N)C(=O)O [Pal-HR-1-11-3H3R] (Palmitoyl-RGSRSGQSSRGERRGSSSGSSSR-OH) | 32 (≈ 12.3 µM) | 32 (≈ 12.3 µM) |  |  | 32 (≈ 12.3 µM) | 8 (≈ 3.07 µM) | >32 | 32 (≈ 12.3 µM) | >32 | 0.59 |  |  |  |  |  | 
9 | GRRGGRGGRGRGR [GR13] | >32 | >32 |  |  | >32 | >32 | >32 | >32 | >32 | 75 |  |  |  |  |  | 75
10 | SHHRHFRSHQCRR [LCE-3C55-67] | 8 | >32 |  |  | 32 | >32 | >32 | >32 | >32 | 2.35 |  |  |  |  |  | 
